The test system of assay [1] is histone deacetylase (HDAC). The assay can be described thus: HDAC Fluorescent Activity Assay/Drug Discovery Kit (Biomol) with nuclear extracts of HeLa cell as HDAC source. The class given is biochemical. Particulars: compounds 0.01 to 10 μM, 25° C., 20 minutes, fluorescence.
Description: Fluorogenic Histone Deacetylase Lysyl Substrate was used as substrate for HDAC and the test is based on the fact that the removal of acetyl group by HDAC activity causes the substrate to occur emmition wavelength in the ranging from 360 nm to 460 nm.
Various concentrations of the compounds of the present invention ranging from 0.01 to 10 μM were reacted with HDAC enzyme at 25° C. for 20 minutes and equal volume of developer was added thereto. The fluorescence signal was detected at the wavelength in the range 350 to 460 nm using by fluorescence spectrometer.
A further assay relates to PC-3 cells. Description: Tumor cell growth inhibition, sulforhodamine B (SRB) staining. The class given is cell-based. The settings on record: PC-3 human prostatic carcinoma cells, 48 hrs, absorbance 540 nm, adriamycin as positive control. As for the experimental part: PC-3 cells (ATCC, US), human prostatic carcinoma cell line, were cultured in RMPI 1640 supplemented with 10% fetal bovine serum.
Appropriate concentrations of cells (5×10^4 cells/ml) cultured in RMPI 1640 supplemented with 5% fetal bovine serum were poured into 96-well plate and incubated at 37° C. in 5% CO2 condition. The day after the incubation, PC-3 cells were fixed on Time zero (T0) plate by adding 50 μl/well of 50% trichloroacetic acid and the cell concentration was set to zero point by fixing the cells. In the cells treated with test samples, 50% TCA was added to each wells in 50 ul/well after 48 hrs to fix the cells. The final concentration of adding test compounds were 0.01, 0.03, 0.1, 0.3, 1 μg/ml respectively. Then, each fixed plate was washed, dried and 100 μl/well of 0.4% reaction solution containing sulforhodamine B (SRB) reagent dissolved in 0.1% acetic acid was added thereto to stain the cells. 30 minutes later, the cell was washed with 0.1% acetic acid, dried at room temperature, and 10 mM of TRIS base (pH 10.5) was added thereto to dissolve the staining agent. Finally, the absorbance detected at 540 nm was measured and the value was conversed into percentage comparing with that of control group. IC50 (μg/ml), the concentration of the group required to inhibit the cancer cell growth by 50%, was calculated from the data (AA: IC50's<1, A: IC50's<5, B: IC50's<10 and C: IC50's>10). Also, the inhibiting activity of cell growth was expressed as various symbols in accordance with the potency of examples e.g., AA: closely equivalent (1˜2 times), A: slightly weaker (3˜5 times), B: weaker (5˜10 times), C: very weaker (more than 10 times) than that of adriamycin used as a positive control group.
(In general: Sulforhodamine B stains cellular protein and so reports cell mass.)

Usually IC50 stands for the concentration that inhibits the measured activity by half. For `O=C(CCC1=CCN(CCCc2ccccc2)C1=O)NO` [Example 4, N-hydroxy-3-[2-oxo-1-(3-phenyl-propyl)-2,5-dihydro-1H-pyrrol-3-yl]-propionamide], the HDAC inhibition result in assay [1] is on record as “AAA”. In the assay on PC-3 cells, this molecule displayed an IC50 below 5 µg/mL. With `Cc1cccc(CN2CC=C(CCC(=O)NO)C2=O)c1` [Example 7, N-hydroxy-3-[1-(3-methyl-benzyl)-2-oxo-2,5-dihydro-1H-pyrrol-3-yl]-propionamide], in the assay on PC-3 cells, the IC50 was below 5 µg/mL.

With `COc1ccc(CN2CCC=C(CCCC(=O)NO)C2=O)cc1` [Example 95, 4-[1-(4-methoxy-benzyl)-2-oxo-1,2,5,6-tetrahydro-pyridin-3-yl]-N-hydroxy-butylamide], the IC50 with PC-3 cells was above 10 µg/mL.

The molecule `CC(C)c1ccc(CCCN2CC=C(CCC(=O)NO)C2=O)cc1` [Example 43, N-hydroxy-3-{1-[3-(4-isopropyl-phenyl)-propyl]-2-oxo-2,5-dihydro-1H-pyrrol-3-yl]-propionamide] came in with a 50% inhibitory concentration (IC50) in the assay with PC-3 cells below 5 µg/mL. On to `O=C(CCC1=CCCCN(CCCCc2ccccc2)C1=O)NO` [Example 108, N-Hydroxy-3-[2-oxo-1-(4-phenyl-butyl)-2,5,6,7-tetrahydro-1H-azepin-3-yl]-propionamide], for which, in the assay with PC-3 cells, the IC50 was above 10 µg/mL. Still for that read-out and setting: under `O=C(CCC1=CCCCN(CCCc2ccccc2)C1=O)NO` [Example 106, N-Hydroxy-3-[2-oxo-1-(3-phenyl-ethyl)-2,5,6,7-tetrahydro-1H-azepin-3-yl]-propionamide] stands above 10 µg/mL. The same measure, in the same setting: under `O=C(CCC1CCCN(CCc2ccccc2)C1=O)NO` (stereo not drawn) [Example 81, N-hydroxy-3-(2-oxo-1-phenethyl-piperidine-3-yl)-propionamide] stands above 10 µg/mL; under `COc1ccc(CN2CCC=C(CCC(=O)NO)C2=O)c(OC)c1` [Example 57, 3-[1-(2,4-dimethoxybenzyl)-2-oxo-1,2,5,6-tetrahydro-pyridin-3-yl]-N-hydroxy-propionamide], below 1 µg/mL. Same read-out and setting: under `O=C(CCC1=CCCN(Cc2ccc(NC(=O)c3ccccc3)cc2)C1=O)NO` [Example 75, N-4-[5-(2-hydroxycarbamoyl-ethyl)-6-oxo-3,6-dihydro-2-pyridin-1-yl-methyl]-phenyl-benzamide] stands below 10 µg/mL.

As to `O=C(CCC1=CCCN(Cc2ccc([N+](=O)[O-])cc2)C1=O)NO` [Example 59, N-hydroxy-3-[1-(4-nitro-benzyl)-2-oxo-1,2,5,6-tetrahydro-pyridin-3-yl)-propionamide], the 50% inhibitory concentration (IC50) with PC-3 cells is below 10 µg/mL. In the assay with PC-3 cells, `O=C(CCC1=CCN(CCc2ccccc2)C1=O)NO` [Example 3, N-hydroxy-3-(2-oxo-1-phenethyl-2,5-dihydro-1H-pyrrol-3-yl)-propionamide] returned an IC50 below 1 µg/mL. `C=CCN1CC=C(CCC(=O)NO)C1=O` [Example 51, 3-(1-allyl-2-oxo-2,5-dihydro-1H-pyrrol-3-yl)-N-hydroxy-propionamide] displayed an IC50 in the assay on PC-3 cells above 10 µg/mL.

In the assay on PC-3 cells, `O=C(CCC1=CCN(Cc2ccc(Cl)cc2)C1=O)NO` [Example 13, 3-[1-(4-chloro-benzyl)-2-oxo-2,5-dihydro-1H-pyrrol-3-yl]-N-hydroxy-propionamide] gave an IC50 below 5 µg/mL. The same measure, in the same setting: next, `C=CCN1CCC=C(CCC(=O)NO)C1=O` [Example 101, 3-(1-Allyl-2-oxo-1,2,5,6-tetrahydro-pyridin-3-yl)-N-hydroxy-propionamide]: above 10 µg/mL; `O=C(CC1=CCCN(CCCCc2ccccc2)C1=O)NO` [Example 86, N-hydroxy-2-[2-oxo-1-(4-phenyl-butyl)-1,2,5,6-tetrahydro-pyridin-3-yl]-N-hydroxy-acetamide]: above 10 µg/mL; `COc1ccc(CCN2CC=C(CCC(=O)NO)C2=O)cc1` [Example 38, N-hydroxy-3-{1-[2-(4-methoxy-phenyl)-ethyl]-2-oxo-2,5-dihydro-1H-pyrrol-3-yl}-propionamide]: below 5 µg/mL.

For the molecule `O=C(CC1=CCN(Cc2ccc(OCc3ccccc3)cc2)C1=O)NO` [Example 24, 2-[1-(4-benzyloxy-benzyl)-2-oxo-2,5-dihydro-1H-pyrrol-3-yl]-N-hydroxy-acetamide], the IC50 in the assay with PC-3 cells is above 10 µg/mL. On the same count and under the same terms, under `O=C(CC1=CCN(Cc2ccccc2)C1=O)NO` [Example 20, 2-(1-benzyl-2-oxo-2,5-dihydro-1H-pyrrol-3-yl)-N-hydroxy-acetamide] stands above 10 µg/mL; under `O=C(CCC1=CCN(CCc2ccccc2F)C1=O)NO` [Example 28, 3-{1-[2-(2-fluoro-phenyl)-ethyl]-2-oxo-2,5-dihydro-1H-pyrrol-3-yl}-N-hydroxy-propionamide], below 5 µg/mL; under `O=C(CCC1=CCN(CCc2ccc3ccccc3c2)C1=O)NO` [Example 53, N-hydroxy-3-[1-(2-naphthalene-2-yl-ethyl)-2-oxo-2,5-dihydro-1H-pyrrol-3-yl]-propionamide], below 1 µg/mL. Still for that read-out and setting: next, `O=C(CCC1=CCN(CCc2ccc(F)cc2)C1=O)NO` [Example 30, 3-{1-[2-(4-fluoro-phenyl)-ethyl]-2-oxo-2,5-dihydro-1H-pyrrol-3-yl}-N-hydroxy-propionamide]: below 5 µg/mL.

In the assay on PC-3 cells, `O=C(CC1CCN(CCc2ccccc2)C1=O)NO` (stereo not drawn) [Example 27, N-hydroxy-2-(2-oxo-1-phenethyl-pyrrolidin-3-yl)-acetamide] came in with an IC50 above 10 µg/mL. `CC(=O)Nc1ccc(CN2CCC=C(CCC(=O)NO)C2=O)cc1` [Example 74, 3-[1-(4-acetylamino-benzyl)-2-oxo-1,2,5,6-tetrahydro-pyridin-3-yl)-N-hydroxy-propionamide]: the IC50 in the assay on PC-3 cells is above 10 µg/mL. In the assay on PC-3 cells, `COc1cccc(CN2CC=C(CCC(=O)NO)C2=O)c1` [Example 10, N-hydroxy-3-[1-(3-methoxy-benzyl)-2-oxo-2,5-dihydro-1H-pyrrol-3-yl]-propionamide] registered an IC50 below 1 µg/mL. On the same count and under the same terms, under `O=C(CC1CCN(Cc2ccccc2)C1=O)NO` (stereo not drawn) [Example 25, 2-(1-benzyl-2-oxo-pyrrolidin-3-yl)-N-hydroxy-acetamide] stands above 10 µg/mL. Same read-out and setting: under `O=C(CC1=CCCN(Cc2ccccc2)C1=O)NO` [Example 83, 2-(1-benzyl-2-oxo-1,2,5,6-tetrahydro-pyridin-3-yl)-N-hydroxy-acetamide] stands above 10 µg/mL; under `O=C(CCC1=CCN(CCCc2ccc(-c3ccccc3)cc2)C1=O)NO` [Example 55, 3-[1-(3-biphenyl-4-yl-propyl)-2-oxo-2,5-dihydro-1H-pyrrol-3-yl]-N-hydroxy-propionamide], below 1 µg/mL; under `COc1ccc(CN2CCC=C(CC(=O)NO)C2=O)c(OC)c1` [Example 82, 2-[1-(2,4-dimethoxy-benzyl)-2-oxo-1,2,5,6-tetrahydro-pyridin-3-yl]-N-hydroxy-acetamide], above 10 µg/mL. On to `O=C(CCC1=CCN(CCCc2ccc3ccccc3c2)C1=O)NO` [Example 56, N-hydroxy-3-[1-(3-naphthalene-2-yl-propyl)-2-oxo-2,5-dihydro-1H-pyrrol-3-yl]-propionamide], for which the Cell growth inhibition result in the assay with PC-3 cells is given as “AAA”. As to `CS(=O)(=O)N(c1ccc(CN2CCC=C(CCC(=O)NO)C2=O)cc1)S(C)(=O)=O` [Example 76, N-hydroxy-3-[1-(4-dimethylsulfonylamino-benzyl)-2-oxo-1,2,5,6-tetrahydro-pyridin-3-yl]-propionamide], in the assay with PC-3 cells, the IC50 is above 10 µg/mL. The same measure, in the same setting: next, `O=C(CCC1=CCN(CCc2ccc([N+](=O)[O-])cc2)C1=O)NO` [Example 33, N-hydroxy-3-{1-[2-(4-nitro-phenyl)-ethyl]-2-oxo-2,5-dihydro-1H-pyrrol-3-yl}-propionamide]: below 5 µg/mL; `O=C(CCC1=CCCN(CCc2ccccc2)C1=O)NO` [Example 60]: below 10 µg/mL; `O=C(O)CCC1=CCCN(Cc2ccccc2)C1=O` [Example 64, 3-(1-benzyl-2-oxo-1,2,5,6-tetrahydro-pyridin-3-yl)-propionic acid]: above 10 µg/mL. On the same count and under the same terms, next, `O=C(CCC1=CCN(CCc2ccc(Br)cc2)C1=O)NO` [Example 35, 3-{1-[2-(4-bromo-phenyl)-ethyl]-2-oxo-2,5-dihydro-1H-pyrrol-3-yl}-N-hydroxy-propionamide]: below 5 µg/mL. On the same count and under the same terms, under `Cc1ccc(CN2CC=C(CCC(=O)NO)C2=O)cc1` [Example 8, N-hydroxy-3-[1-(4-methyl-benzyl)-2-oxo-2,5-dihydro-1H-pyrrol-3-yl]-propionamide] stands below 5 µg/mL; under `O=C(CCC1=CCN(CCc2ccccc2Br)C1=O)NO` [Example 34, 3-{1-[2-(2-bromo-phenyl)-ethyl]-2-oxo-2,5-dihydro-1H-pyrrol-3-yl}-N-hydroxy-propionamide], below 5 µg/mL; under `O=C(CCC1=CCCN(Cc2ccccc2)C1=O)Nc1ccccn1` [Example 69, 3-(1-benzyl-2-oxo-1,2,5,6-tetrahydro-pyridin-3-yl)-N-pyridin-2-yl-propionamide], above 10 µg/mL. As for `Cc1cccc(CCCN2CC=C(CCC(=O)NO)C2=O)c1` [Example 42, N-hydroxy-3-[2-oxo-1-(3-m-tolyl-propyl)-2,5-dihydro-1H-pyrrol-3-yl]-propionamide], in the assay on PC-3 cells, the IC50 is below 1 µg/mL.

Source of the values: patent US7723376B2, “2-oxo-heterocyclic compounds and pharmaceutical compositions” (Korea Research Institute of Bioscience and Biotechnology, priority 2003, dated 2010).
